Test results from patent publication US9592260B2, “Cancer therapy with a parvovirus combined with an HDAC inhibitor” (priority 2010, dated 2017).

Experiments:
[1] = system: cervical carcinoma cell cultures (HeLa, CaSki, SiHa, CxCa); assay: LDH assay, H-1PV with or without HDACI, statements over all cervical cultures; assay type: cell-based, human; details: VPA 1 mM, 72 h, FIG. 5
Description: Cervical cancer derived cell lines (HeLa, CaSki, SiHa) and non-established cervical cancer cell cultures (CxCa) were infected with H-1PV at the indicated MOIs (pfu/cell) and grown for 72 h in the presence (grey bars) or absence (white bars) of VPA (1 mM). After incubation, cell lysis was evaluated by measuring the release of lactate dehydrogenase (LDH). Hatched bars at the right hand side of each chart show the minimal dose of H-1PV able to kill 90-100% of the cancer cells as monotherapy.
The sub-lethal dose of VPA boosted parvovirus-induced cell killing in a synergistic manner, increasing by up to 50-100%. […] Similar results were also obtained combining H-1PV with NaB, TSA or SaHa (Table 2).

HeLa established tumors = assay type: in vivo, nude rat; details: VPA 100 mg/kg; compared with mock-treated controls
From the text: Data shown represents the average values with standard deviation bars.

AsPC-1 = assay: LDH assay, H-1PV with or without VPA, PDAC cells; details: AsPC-1 (printed AP-1), 72 hours, H-1PV at various MOI, FIG. 7
Description: (§1) APC-1 and Capan-1 cells were plated in 96 wells plates (2000 cells/well). After 16 hours, cell were infected with H-1PV at the indicated MOI and grown in the presence or absence of VPA for additional 72 hours. Cellular lysis was measured by LDH assay.
(§2) Parvovirus cytotoxicity was measured by evaluating the release of lactate dehydrogenase in the medium using the CytoTox 96 kit from Promega (Mannheim, Germany). The day before infection, 2000 cells were seeded per well in 96-well plate in 50 μl of culture medium. After 24 hours, cells were infected with 50 μl of serum-free medium containing H-1PV or treated with HDAC inhibitors in 7 replicates per condition. The day of measurement, 3 out of 7 wells were incubated for 30 minutes with lysis buffer to estimate the maximum LDH release under conditions of 100% lysis. Afterwards, the plate was centrifuged and 50 μl of supernatant were mixed with the substrate mix. The LDH enzyme catalyzes a colorimetric reaction that is indicative of the amount of enzyme released in the medium. After 30 minutes, the reaction was stopped and analyzed using the Elisa reader MultiScan at 492 nm.
(§3) Cells were seeded in 96 wells plate and then infected with various concentrations of H-1PV in the presence or absence of the HDACI Valproic acid (VPA).

Capan-1 = assay: LDH assay, H-1PV with or without VPA, PDAC cells; details: 72 hours, H-1PV at various MOI, FIG. 7
Description: as §1, §2, §3

CCCC(CCC)C(=O)O [VPA, valproic acid]
effect on cellular growth when applied singly [1]: did not have any significant effect | tumour growth (HeLa established tumors): failed to impair tumour growth | cell lysis / cytotoxicity (LDH assay) (AsPC-1): no effect | cell lysis / cytotoxicity (LDH assay) (Capan-1): no effect
